Measured values from ChEMBL document CHEMBL4619758, “Discovery of 3-({5-Chloro-1-[3-(methylsulfonyl)propyl]-1H-indol-2-yl}methyl)-1-(2,2,2-trifluoroethyl)-1,3-dihydro-2H-imidazo[4,5-c]pyridin-2-one (JNJ-53718678), a Potent and Orally Bioavailable Fusion Inhibitor of Respiratory Syncytial Virus” (J Med Chem, 2020).

Assays:
[1] = Cytotoxicity against human HeLa cells assessed as reduction in cell viability after 3 days by ATPlite assay
[2] = in vitro; conditions: human, HeLa cells
Description: Selectivity index, ratio of CC50 for human HeLa cells to EC50 GFP-fused RSV 224 fusion protein infected in human HeLa cells

[3] = Protein binding in human plasma assessed as unbound fraction; type: ADME, cell-free
[4] = Metabolic stability in human liver microsomes assessed as compound metabolized after 15 mins; type: ADME, Microsome; conditions: read-out: Drug metabolism

| SMILES | CC50 at 72 h [1] [µM] | selectivity ratio [2] | fraction unbound [3] | metabolised at 0.25 h [4] [%] |
| --- | --- | --- | --- | --- |
| O=c1n(Cc2cc3ccc(Cl)cc3n2CCCCO)c2cnccc2n1C1CC1 | > 50 | – | – | – |
| CC(C)CCn1c(Cn2c(=O)n(C3CC3)c3ccncc32)cc2ccccc21 | > 100 | 181 | 0.006 | – |
| N=C(CCCn1c(Cn2c(=O)n(C3CC3)c3ccncc32)cc2cc(Cl)ccc21)NO | > 50 | – | – | 37 |
| CS(=O)(=O)CCCn1c(Cn2c(=O)n(C3CC3)c3ccncc32)cc2cnccc21 | > 50 | – | – | 32 |
| O=c1n(Cc2cc3cc(Br)ccc3n2CCCCO)c2cnccc2n1C1CC1 | > 50 | – | – | – |
| CC(C)(O)CCCn1c(Cn2c(=O)n(C3CC3)c3ccncc32)cc2cc(Cl)ccc21 | > 50 | – | – | 56 |
| N#CCCCn1c(Cn2c(=O)n(-c3ccncc3)c3ccncc32)cc2cc(Cl)ccc21 | > 50 | – | – | 23 |
| O=c1n(Cc2nc3nc(Cl)ccc3n2CCCCF)c2cnccc2n1C1CC1 | > 50 | – | – | 0 |
| O=c1n(Cc2cc3cc(Cl)ccc3n2CCCCF)c2cnccc2n1C1CC1 | > 50 | – | – | 37 |
| O=c1n(Cc2cc3ncccc3n2CCCCO)c2cnccc2n1C1CC1 | > 100 | > 613 | – | – |
| N#CCCCn1c(Cn2c(=O)n(-c3ccncn3)c3ccncc32)cc2cc(Cl)ccc21 | > 50 | – | – | 60 |
| NC(=O)CCCn1c(Cn2c(=O)n(C3CC3)c3ccncc32)cc2cc(Cl)ccc21 | > 50 | – | – | – |
| CC(C)CCn1c(Cn2c(=O)n(C3CC3)c3ccncc32)nc2nc(Cl)ccc21 | > 50 | – | – | 7 |
| CS(=O)(=O)CCCn1c(Cn2c(=O)n(C3CC3)c3ccncc32)cc2cc(C(F)(F)F)ccc21 | > 50 | – | – | – |
| N#CCCCn1c(Cn2c(=O)n(-c3ccncc3F)c3ccncc32)cc2cc(Cl)ccc21 | > 50 | – | – | 27 |
| N#CCCCn1c(Cn2c(=O)n(-c3ncccn3)c3ccncc32)cc2cc(Cl)ccc21 | > 50 | – | – | 34 |
| CC(C)CCn1c(Cn2c(=O)n(C3CC3)c3ccncc32)cc2cccnc21 | > 100 | – | – | – |
| O=c1n(Cc2nc3cnccc3n2CCCCO)c2cnccc2n1C1CC1 | > 100 | > 18000 | – | – |
| COc1ccc(-n2c(=O)n(Cc3cc4cc(Cl)ccc4n3CCCC#N)c3cnccc32)c(F)c1 | > 50 | – | – | 17 |
| O=c1n(Cc2cc3cnccc3n2CCCCF)c2cnccc2n1C1CC1 | > 50 | – | – | 15 |
| CS(=O)(=O)CCCn1c(Cn2c(=O)n(C3CC3)c3ccncc32)cc2cc(Br)ccc21 | > 50 | – | – | – |
| O=c1n(Cc2cc3ccncc3n2CCCCO)c2cnccc2n1C1CC1 | > 100 | > 76 | – | – |
| O=c1n(Cc2cc3cc(Cl)ccc3n2CCCN2CCOCC2)c2cnccc2n1C1CC1 | > 50 | – | – | 99 |
| CS(=O)(=O)CCCn1c(Cn2c(=O)n(C3CC3)c3ccncc32)cc2ccccc21 | > 100 | > 10000 | – | – |
| N#CCCCn1c(Cn2c(=O)n(-c3ccc(C(=O)O)cc3)c3ccncc32)cc2cc(Cl)ccc21 | > 50 | – | – | 9 |
| CS(=O)(=O)CCCn1c(Cn2c(=O)n(C3COC3)c3ccncc32)cc2cc(Cl)ccc21 | > 50 | – | – | 52 |
| CC(C)CCn1c(Cn2c(=O)n(C3CC3)c3ccncc32)nc2ncccc21 | > 100 | > 12000 | – | – |
| CC(C)CCn1c(Cn2c(=O)n(C3CC3)c3ccncc32)nc2cccnc21 | > 100 | > 80 | – | – |

| SMILES | CC50 at 72 h [1] [µM] | selectivity ratio [2] | fraction unbound [3] | metabolised at 0.25 h [4] [%] |
| --- | --- | --- | --- | --- |
| CC(n1c(=O)n(Cc2cc3cc(Cl)ccc3n2CCCS(C)(=O)=O)c2cnccc21)C(F)(F)F (stereo unspecified) | > 50 | – | – | 2 |
| N#CCCCn1c(Cn2c(=O)n(-c3ccc(C(=O)NC4CC4)cc3)c3ccncc32)cc2cc(Cl)ccc21 | > 50 | – | – | 24 |
| CS(=O)(=O)CCCn1c(Cn2c(=O)n(C3CC3)c3ccncc32)nc2nc(Cl)ccc21 | > 50 | – | – | 0 |
| CC(C)(O)CCCn1c(Cn2c(=O)n(C3CC3)c3ccncc32)nc2nc(Cl)ccc21 | > 50 | – | – | 41 |
| N#CCCCn1c(Cn2c(=O)n(-c3ncco3)c3ccncc32)cc2cc(Cl)ccc21 | > 50 | – | – | 45 |
| Cc1ccc(-n2c(=O)n(Cc3cc4cc(Cl)ccc4n3CCCC#N)c3cnccc32)cc1 | > 50 | – | – | 36 |
| O=C(O)CCCn1c(Cn2c(=O)n(C3CC3)c3ccncc32)cc2cc(Cl)ccc21 | > 50 | – | – | – |
| COc1ccc2c(c1)cc(Cn1c(=O)n(C3CC3)c3ccncc31)n2CCCCO | > 50 | – | – | – |
| CC(C)CCn1c(Cn2c(=O)n(C3CC3)c3ccncc32)nc2ccncc21 | > 100 | > 987 | – | – |
| CC(C)CCn1c(Cn2c(=O)n(C3CC3)c3ccncc32)cc2cnccc21 | > 50 | – | – | 44 |
| O=c1n(Cc2cc3cc(F)ccc3n2CCCCO)c2cnccc2n1C1CC1 | > 50 | – | – | – |
| COc1ccc(-n2c(=O)n(Cc3cc4cc(Cl)ccc4n3CCCC#N)c3cnccc32)cc1C | > 50 | – | – | 33 |
| O=c1n(Cc2cc3cc(Cl)ccc3n2CCCCO)c2cnccc2n1C1CC1 | > 50 | – | – | 49 |
| CS(=O)(=O)CCCn1c(Cn2c(=O)n(C3CN(S(C)(=O)=O)C3)c3ccncc32)cc2cc(Cl)ccc21 | > 50 | – | – | 15 |
| O=c1n(Cc2nc3nc(Cl)ccc3n2CCCCO)c2cnccc2n1C1CC1 | > 50 | – | – | 0 |
| CS(=O)(=O)CCCn1c(Cn2c(=O)n(CC#N)c3ccncc32)cc2cc(Cl)ccc21 | > 50 | – | – | 66 |
| N#CCCCn1c(Cn2c(=O)n(C3CC3)c3ccncc32)nc2nc(Cl)ccc21 | > 50 | – | – | 0 |
| CC(C)(C)n1c(=O)n(Cc2cc3cc(Cl)ccc3n2CCCS(C)(=O)=O)c2cnccc21 | > 50 | – | – | 28 |
| O=c1n(Cc2cc3cc(Cl)ccc3n2CCCC(F)(F)F)c2cnccc2n1C1CC1 | > 50 | – | – | 23 |
| O=c1n(Cc2cc3cnccc3n2CCCCO)c2cnccc2n1C1CC1 | > 100 | > 57000 | – | – |
| CC(C)CCn1c(Cn2c(=O)n(C3CC3)c3ccncc32)nc2cnccc21 | > 100 | > 3000 | – | – |
| COc1ccc(-n2c(=O)n(Cc3cc4cc(Cl)ccc4n3CCCC#N)c3cnccc32)c(C)c1 | > 50 | – | – | 36 |
| O=c1n(Cc2nc3ncccc3n2CCCCO)c2cnccc2n1C1CC1 | > 100 | > 10000 | – | – |
| CS(=O)(=O)CCCn1c(Cn2c(=O)n(C3CNC3)c3ccncc32)cc2cc(Cl)ccc21 | > 50 | – | – | 14 |
| Cn1ccc(-n2c(=O)n(Cc3cc4cc(Cl)ccc4n3CCCC#N)c3cnccc32)n1 | > 50 | – | – | 49 |
| CS(=O)(=O)CCCn1c(Cn2c(=O)n(C3CC3)c3ccncc32)cc2cc(F)ccc21 | > 50 | – | – | – |
| N#CCCCn1c(Cn2c(=O)n(-c3ccc(OC(F)(F)F)cc3)c3ccncc32)cc2cc(Cl)ccc21 | > 50 | – | – | 0 |
